# Measurements published in ChEMBL document CHEMBL1150406, “Novel triterpenoid from Citrus aurantium L. possesses chemopreventive properties against human colon cancer cells” (Bioorg Med Chem, 2008).
# Calls of active or inactive are those of the source. The rule behind the calls is not given here.
# Experiments:
# HT-29 [1] = experiment: Cell cycle arrest in human HT29 cells by accumulation at G2/M phase at 10 uM after 48 hrs by flow cytometry; assay type: functional
# HT-29 [2] = experiment: Cell cycle arrest in human HT29 cells by accumulation at S phase at 10 uM after 48 hrs by flow cytometry; assay type: functional
# HT-29 [3] = experiment: Cell cycle arrest in human HT29 cells assessed as background aggregates and debris at 5 uM after 48 hrs by flow cytometry; assay type: functional
# [4] = Growth inhibition of monkey COS1 cells by flow cytometry; assay type: cell-based; settings: cos-1
# HT-29 [5] = experiment: Cytotoxicity against human HT29 cells at 5 uM after 72 hrs by MTT assay; assay type: functional
# HT-29 [6] = experiment: Induction of apoptosis in human HT29 cells at 10 uM by nuclear staining method; assay type: functional, cell-based
# HT-29 [7] = experiment: Cell cycle arrest in human HT29 cells by accumulation at G2/M phase at 5 uM after 48 hrs by flow cytometry; assay type: functional
# HT-29 [8] = experiment: Cell cycle arrest in human HT29 cells by accumulation at G0/G1 phase at 5 uM after 48 hrs by flow cytometry; assay type: functional
# HT-29 [9] = experiment: Cytotoxicity against human HT29 cells at 2.5 uM after 48 hrs by MTT assay; assay type: functional, cell-based
# HT-29 [10] = experiment: Cell cycle arrest in human HT29 cells assessed as background aggregates and debris at 10 uM after 48 hrs by flow cytometry; assay type: functional
# HT-29 [11] = experiment: Cell cycle arrest in human HT29 cells by accumulation at S phase at 5 uM after 48 hrs by flow cytometry; assay type: functional
# HT-29 [12] = experiment: Cell cycle arrest in human HT29 cells by accumulation at G0/G1 phase at 10 uM after 48 hrs by flow cytometry; assay type: functional
# HT-29 [13] = experiment: Cytotoxicity against human HT29 cells after 48 hrs by MTT assay; assay type: functional, cell-based
# HT-29 [14] = experiment: Cytotoxicity against human HT29 cells at 10 uM after 24 hrs by MTT assay; assay type: functional, cell-based
Compound,Activity (HT-29 [1]),Activity (HT-29 [2]),Activity (HT-29 [3]),Activity [4],Activity (HT-29 [5]),Activity (HT-29 [6]),Activity (HT-29 [7]),Activity (HT-29 [8]),Activity (HT-29 [9]),Activity (HT-29 [10]),Activity (HT-29 [11]),Activity (HT-29 [12]),Activity (HT-29 [13]),Activity (HT-29 [14])
CC1(C)OC[C@@]2([C@@H](O)CC(=O)O)[C@H]3CC[C@@]4(C)[C@H](c5ccoc5)OC(=O)[C@H]5O[C@]54[C@]3(C)C(=O)C[C@@H]12 [ISOLIMONOIC ACID],17.4%,12.7%,34.8%,Not Active,20%,Active,6.1%,91%,Active,75.5%,4%,69.9%,–,–
CC(C)(O)[C@@H]1CC(=O)[C@]2(C)[C@H](CC[C@@]3(C)[C@H](C4=CC(O)OC4=O)OC(=O)[C@H]4O[C@]432)[C@]12COC(=O)C[C@@H]2O (stereo partly specified) [ICHANEXIC ACID],23.8%,6%,42.9%,Not Active,20%,Active,8.7%,91.3%,Active,75.1%,4.1%,70.2%,Active,Active
